In one experiment the test system is MCF7 (Dox resistance). As to the kind of experiment: MTS cytotoxicity assay, MCF7 (Dox resistance). The class given is cell-based. The settings on record: Homo sapiens, MTS cell viability. The method, then: (§1) Cytotoxicity effect of dissociable curcumin-hyaluronan complex, the curcumin-hyaluronan complex having a substantially non-acid labile covalent bond and free curcumin was detected by MTS (3-(4,5-dimethylthiazol-2yl)-5-(3-[…]-2-(4-sulfophenyl)-2H-tetrazolium) assay. The formazan color intensity was measured directly from 96 well plates in terms of absorbance at 490 nm and 630 nm using a 96-well multi-scanner (MRX Revelation; Dynex Technologies). For calculating cell viability (%) all the appropriate correction was made and the IC50 values were determined from sigmoidal fitting of the data. FIGS. 3-5 represent confocal microscopy images representing the uptake of curcumin and the dissociable complex into the C-13, NIH3T3 and RA-8001 cell lines.

The next experiment concerns MCF7. The settings on record: from Simon et al., Cancer Lett., (1998), 129, 111; cited from earlier work.
A further experiment concerns NIH3T3. As to the kind of experiment: MTS cytotoxicity assay, NIH3T3. The class given is cell-based. The settings on record: Mus musculus; NIH3T3, MTS cell viability. The method, then: as §1
Another experiment has as its system MDAMB231. As to the kind of experiment: MTS cytotoxicity assay, MDAMB231. The format is cell-based. The settings on record: Homo sapiens, MDA-MB-231; MDAMB231, MTS cell viability. The method, then:
as §1

The subject of the next experiment is C-13. As to the kind of experiment: MTS cytotoxicity assay, C-13. The format is cell-based. The settings on record: Homo sapiens, C13; C-13, MTS cell viability. The method, then: as §1
In the next experiment the test system is RA-8001. The experiment is described as follows: MTS cytotoxicity assay, RA-8001. The settings on record: Homo sapiens; RA-8001, MTS cell viability. The class given is cell-based. The procedure:
as §1

`COc1cc(/C=C/C(=O)CC(=O)/C=C/c2ccc(O)c(OC)c2)ccc1O` [Curcumin]: the IC50 with MCF7 (Dox resistance) is 27.4 ± 0.892 µM; in the experiment with MCF7 it was 15 µM; with NIH3T3, 23.9 ± 3.19 µM; in the experiment with MDAMB231, 27.5 ± 3.36 µM; in the experiment on C-13, 22.2 µM; with RA-8001, 11.1 ± 2.3 µM.

(Values after patent US20090170195A1, “CURCUMIN-HYALURONAN COMPOUNDS” (KENT STATE UNIVERSITY, priority 2007, published 2009).)
